In the CheMixHub viscosity set:

Test: xn = mol fraction of the nth substance listed

c1ccccc1 + CCCCCCC
Settings	viscosity [mPa·s]
294.15 K, 101 kPa, x1 = 0.6	0.4728
295.15 K, 101 kPa, x1 = 0.3	0.427
298 K, 101 kPa, x1 = 0.5	0.4167
298 K, 101.33 kPa, x1 = 0.1007	0.3923
298 K, 101.33 kPa, x1 = 0.1109	0.3913
298 K, 101.33 kPa, x1 = 0.1922	0.4003
298 K, 101.33 kPa, x1 = 0.276	0.4019
298 K, 101.33 kPa, x1 = 0.2915	0.4023
298 K, 101.33 kPa, x1 = 0.3953	0.4142
298 K, 101.33 kPa, x1 = 0.4839	0.4157
298 K, 101.33 kPa, x1 = 0.5204	0.4382
298 K, 101.33 kPa, x1 = 0.6729	0.4487
298 K, 101.33 kPa, x1 = 0.6893	0.5006
298 K, 101.33 kPa, x1 = 0.6967	0.4544
298 K, 101.33 kPa, x1 = 0.8532	0.5208
298 K, 101.33 kPa, x1 = 0.9152	0.5442
298.15 K, 101 kPa, x2 = 0.1025	0.53
298.15 K, 101 kPa, x2 = 0.2002	0.491
298.15 K, 101 kPa, x2 = 0.2919	0.46
298.15 K, 101 kPa, x2 = 0.4003	0.429
298.15 K, 101 kPa, x2 = 0.5192	0.41
298.15 K, 101 kPa, x2 = 0.6209	0.401
298.15 K, 101 kPa, x2 = 0.7084	0.392
298.15 K, 101 kPa, x2 = 0.7893	0.388
298.15 K, 101 kPa, x2 = 0.9165	0.386
298.15 K, 101.33 kPa, x2 = 0.095	0.532
298.15 K, 101.33 kPa, x2 = 0.1973	0.485
298.15 K, 101.33 kPa, x2 = 0.2999	0.455
298.15 K, 101.33 kPa, x2 = 0.3741	0.439
298.15 K, 101.33 kPa, x2 = 0.3984	0.431
298.15 K, 101.33 kPa, x2 = 0.4961	0.414
298.15 K, 101.33 kPa, x2 = 0.5995	0.403
298.15 K, 101.33 kPa, x2 = 0.6762	0.397
298.15 K, 101.33 kPa, x2 = 0.7309	0.395
298.15 K, 101.33 kPa, x2 = 0.7987	0.391
298.15 K, 101.33 kPa, x2 = 0.8933	0.389
308.15 K, 101 kPa, x2 = 0.1025	0.47
308.15 K, 101 kPa, x2 = 0.2002	0.44
308.15 K, 101 kPa, x2 = 0.2919	0.412
308.15 K, 101 kPa, x2 = 0.4003	0.388
308.15 K, 101 kPa, x2 = 0.5192	0.37
308.15 K, 101 kPa, x2 = 0.6209	0.36
308.15 K, 101 kPa, x2 = 0.7084	0.355
308.15 K, 101 kPa, x2 = 0.7893	0.351
308.15 K, 101 kPa, x2 = 0.9165	0.349
318 K, 101 kPa, x1 = 0.5	0.3407
318.15 K, 101 kPa, x2 = 0.1025	0.42
318.15 K, 101 kPa, x2 = 0.2002	0.396
318.15 K, 101 kPa, x2 = 0.2919	0.371
318.15 K, 101 kPa, x2 = 0.4003	0.352
318.15 K, 101 kPa, x2 = 0.5192	0.338
318.15 K, 101 kPa, x2 = 0.6209	0.33
318.15 K, 101 kPa, x2 = 0.7084	0.325
318.15 K, 101 kPa, x2 = 0.7893	0.319
318.15 K, 101 kPa, x2 = 0.9165	0.318
323.15 K, 101 kPa, x1 = 0.6	0.342
